# In article PMC8578705 (Cell Reports, 2021):
# Several values for one entry are separate records, joined by “and”; a condition that tells them apart may be missing. Identical values can stand only once.
# Key:
# [1] = tested on: mock-transfected HEK cells; assay: ER Ca2+ release from permeabilized mock-transfected HEK cells; format: cell-based, Homo sapiens; settings: ML-SA1 0-100 μM
# Procedure: Figure S5. Evidence that over-expressed TRPML1 releases Ca2+ from ER, and that erlin 2 does not mediate quantal Ca2+ release
# Ca2+ uptake into the ER of permeabilized HEK cells was initiated by addition of ATP (1.5 mM), before adding CPA (10 μM) and then the indicated […]
# concentration of ML-SA1 (0-100 μM).
# (B) Summary results from experiments similar to those shown in Figure 4A show half-times (t1/2) for loss of ER Ca2+ evoked by the indicated concentrations of ML-SA1 (mean ± SEM, n = 4, each with 2 […]
# (C) Addition of ATP (1.5 mM) to permeabilized HEK cells stimulates Ca2+ uptake into the ER, reported by the increase in Mag-fluo 4 fluorescence. The response is abolished by CPA (10 µM) added 60 s before ATP. Mean ± SEM, n = 4, each with 2 replicates. RFU, relative fluorescence units.
# (D) Permeabilized HEK cells expressing CFP-TRPML1 were treated (60 min) with vehicle (DMSO), bafilomycin A1 (1 µM to inhibit the lysosomal H+ pump) or FCCP (10 µM to dissipate H+ gradients) before addition of ATP (1.5 mM) to initiate Ca2+ uptake. After addition of CPA (10 μM), ML-SA1 (30 µM) was added where indicated. Mean ± SD of 3 replicates. […]
# (F) TIRFM images show expression of CFP-TRPML1 and EGFP-IP3R1 in HEK cells expressing both proteins, typical of 3 independent experiments (~10 cells in each). […] It was impracticable, when most CFP-TRPML1 is lysosomal, to quantify any colocalization with IP3Rs. […]
# [2] = molecular target: T1, CFP-TRPML1 (Homo sapiens, UniProt Q9GZU1); assay: ER Ca2+ release from permeabilized HEK cells expressing CFP-TRPML1; format: cell-based
# T1 construct: host or cells: HEK cells, transient transfection
# Source text: Figure 4 Neither ER reorganization nor luminal Ca^2+ mediates quantal Ca^2+ release (A) Effects of the indicated concentrations of ML-SA1 on the ER Ca^2+ content of permeabilized HEK cells expressing CFP-TRPML1. (B) Semi-logarithmic plots show mono-exponential loss of ER Ca^2+ after treatment with ML-SA1. Results (A and B) are typical of four experiments, each with duplicate determinations. Summary results are in Figure S5B. (C and D) Permeabilized DT40-IP3R1 cells were loaded to steady state with Ca^2+ before addition of thapsigargin (TG, 1 μM) to inhibit SERCAs. […] Results are typical of 29–36 experiments. […] See also Figure S5.
# Incubation of cells with the acetoxymethylester (AM) of Mag-fluo 4 traps low-affinity forms of the indicator ( KdCa = 1.15 mM measured in situ) within the ER. Fluorescence, which is approximately linearly related to ER free [Ca^2+] (since [Ca^2+]ER < KdCa ), can then be used, without further calibration, to reliably report free [Ca^2+] within the ER lumen ([Rossi and Taylor, 2020]). The ER of DT40 or HEK293 cells was loaded with indicator by incubating cells with Mag-fluo 4 AM (20 μM, 60 min, 22°C) in HEPES-buffered saline (HBS: 135 mM NaCl, 5.9 mM KCl, 11.6 mM HEPES, 1.5 mM CaCl2, 11.5 mM glucose, 1.2 mM MgCl2, pH 7.3) as described ([Rossi et al., 2009]). […]
# [3] = molecular target: T2, IP3R1 (DT40-IP3R1 cells) (Rattus norvegicus, UniProt P29994); assay: Ca2+ release from permeabilized DT40-IP3R1 cells (Mag-fluo 4); format: cell-based
# T2 construct: expressed in transfected cells; host or cells: Gallus gallus DT40 cells without native IP3Rs, stably transfected
# Procedure: (§1) Incubation of cells with the acetoxymethylester (AM) of Mag-fluo 4 traps low-affinity forms of the indicator ( KdCa = 1.15 mM measured in situ) within the ER. Fluorescence, which is approximately linearly related to ER free [Ca^2+] (since [Ca^2+]ER < KdCa ), can then be used, without further calibration, to reliably report free [Ca^2+] within the ER lumen ([Rossi and Taylor, 2020]). The ER of DT40 or HEK293 cells was loaded with indicator by incubating cells with Mag-fluo 4 AM (20 μM, 60 min, 22°C) in HEPES-buffered saline (HBS: 135 mM NaCl, 5.9 mM KCl, 11.6 mM HEPES, 1.5 mM CaCl2, 11.5 mM glucose, 1.2 mM MgCl2, pH 7.3) as described ([Rossi et al., 2009]). After washing and permeabilization with saponin (10 μg/mL, 37°C, 2-3 min) in Ca^2+-free cytosol-like medium (Ca^2+-free CLM), cells were centrifuged (650 × g, 2 min) and resuspended in Mg^2+-free CLM supplemented with CaCl2 to give a final free [Ca^2+] of 220 nM after addition of 1.5 mM MgATP. Ca^2+-free CLM comprised: 20 mM NaCl, 140 mM KCl, 1 mM EGTA, 20 mM PIPES, 2 mM MgCl2, pH 7.0. Cells (4 × 10^5 cells/well) were attached to poly-L-lysine-coated 96-well black-walled plates (Greiner Bio-One, Stonehouse, UK), and fluorescence (excitation and emission at 485 nm and 520 nm, respectively) was recorded at intervals of 1.44 s using a FlexStation III plate-reader (Molecular Devices, Sunnyvale, CA, USA). MgATP (1.5 mM) was added to initiate Ca^2+ uptake, and when the ER had loaded to steady state with Ca^2+ (∼150 s), ligands were added. Responses to the ligands show ER Ca^2+ contents as either time courses or, in summary results, as the Ca^2+ content recorded 20 s after addition of the stimulus. The distribution of samples across 96-well plates was varied between experiments to avoid any systematic ‘position-related’ artifacts. HEK-G-CEPIA1er cells were permeabilized and assayed as described for Mag-fluo 4-loaded cells.
# (§2) For equilibrium binding and concentration-effect relationships, results from each experiment were fitted to Hill equations (PRISM) from which pIC50 (-log of half-maximal inhibitory concentration) or pEC50 (-log of half-maximally effective concentration) values were determined. KDligand was calculated from: KDligand = […] . In functional assays, dose ratios (DR) were used to calculate antagonist affinities ([Arunlakshana and Schild, 1959]): KDantagonist = [antagonist]/(DR-1).
# [4] = molecular target: T3, IBC (residues 224-604 of IP3R1) (Rattus norvegicus, UniProt P29994); assay: Equilibrium-competition [3H]IP3 binding to the IBC fragment in TEM; settings: read-out: IBC, KD
# T3 construct: Residues 224-604 of rat IP3R1 (IBC) in pTrcHisA plasmid; His6 (N, cleaved yes); made in house; host or cells: E. coli (bacterial lysate used in the assay)
# Procedure: (§3) IP3R1, which accounts for ∼99% of IP3Rs in cerebellum ([Wojcikiewicz, 1995]), was purified from cerebella of adult Wistar rats using heparin-affinity chromatography ([Rossi et al., 2009]). The purified protein (10 μg/mL) was stored at −80°C in 500 mM NaCl, 50 mM Tris, 10% glycerol, 1 mM 2-mercaptoethanol, 1 mM benzamidine, 1 mM EGTA, 50 mM Tris, 1% CHAPS, pH 8.0. N-terminal fragments of IP3R1 (IBC, residues 224-604; NT, residues 1-604) were expressed as N-terminally tagged His6-fusion proteins in E. coli and cleaved from the tag with thrombin ([Rossi et al., 2009]). […] Bound and free ligand were separated by centrifugation (4°C, 5 min, 14,000 × g).
# as §2
# [5] = molecular target: T4, NT (residues 1-604 of IP3R1) (Rattus norvegicus, UniProt P29994); assay: Equilibrium-competition [3H]IP3 binding to the NT fragment in TEM; settings: [3H]IP3 0.75 nM, read-out: NT, KD
# T4 construct: Residues 1-604 of rat IP3R1 (NT) in pTrcHisA plasmid; His6 (N, cleaved yes); made in house; host or cells: E. coli (bacterial lysate used in the assay)
# Procedure: as §3, §2
# [6] = tested on: IP3Rs (wild-type HEK cells); assay: Ca2+ release from permeabilized wild-type HEK cells; format: cell-based, Homo sapiens; settings: 20 s after addition
# Procedure: as §1, §2
# [7] = molecular target: T5, IP3R1 (Rattus norvegicus, UniProt P29994); assay: Nuclear patch-clamp recording from excised nuclear patches of DT40-IP3R1 cells; format: biochemical, mammalian
# T5 construct: expressed in transfected cells; host or cells: Gallus gallus DT40 cells without native IP3Rs, stably transfected
# Procedure: The methods used for patch-clamp recording from patches excised from the outer nuclear envelope of DT40-IP3R1 cells, with K^+ as charge-carrier and using QuB ([Qin, 2004]) for analysis of currents, were as described previously ([Taufiq-Ur-Rahman et al., 2009]; [Rossi et al., 2009]). It typically took 30-45 s to establish a recording, and Po was then stable throughout recordings that typically lasted up to 8-10 mins.
# [8] = molecular target: T6, IP3R1 (cerebellar membranes) (Rattus norvegicus, UniProt P29994); assay: Equilibrium-competition [3H]IP3 binding to cerebellar membranes in CLM (conditions mimicking functional assays)
# T6 construct: membranes from cerebella of adult Wistar rats; from tissue; host or cells: cerebellar membranes of adult Wistar rats
# Procedure: Bound and free ligand were separated by centrifugation (22°C, 5 min, 14,000 × g).
# as §2
# T2 sequence (P29994 1-2735 isoform P29994-2): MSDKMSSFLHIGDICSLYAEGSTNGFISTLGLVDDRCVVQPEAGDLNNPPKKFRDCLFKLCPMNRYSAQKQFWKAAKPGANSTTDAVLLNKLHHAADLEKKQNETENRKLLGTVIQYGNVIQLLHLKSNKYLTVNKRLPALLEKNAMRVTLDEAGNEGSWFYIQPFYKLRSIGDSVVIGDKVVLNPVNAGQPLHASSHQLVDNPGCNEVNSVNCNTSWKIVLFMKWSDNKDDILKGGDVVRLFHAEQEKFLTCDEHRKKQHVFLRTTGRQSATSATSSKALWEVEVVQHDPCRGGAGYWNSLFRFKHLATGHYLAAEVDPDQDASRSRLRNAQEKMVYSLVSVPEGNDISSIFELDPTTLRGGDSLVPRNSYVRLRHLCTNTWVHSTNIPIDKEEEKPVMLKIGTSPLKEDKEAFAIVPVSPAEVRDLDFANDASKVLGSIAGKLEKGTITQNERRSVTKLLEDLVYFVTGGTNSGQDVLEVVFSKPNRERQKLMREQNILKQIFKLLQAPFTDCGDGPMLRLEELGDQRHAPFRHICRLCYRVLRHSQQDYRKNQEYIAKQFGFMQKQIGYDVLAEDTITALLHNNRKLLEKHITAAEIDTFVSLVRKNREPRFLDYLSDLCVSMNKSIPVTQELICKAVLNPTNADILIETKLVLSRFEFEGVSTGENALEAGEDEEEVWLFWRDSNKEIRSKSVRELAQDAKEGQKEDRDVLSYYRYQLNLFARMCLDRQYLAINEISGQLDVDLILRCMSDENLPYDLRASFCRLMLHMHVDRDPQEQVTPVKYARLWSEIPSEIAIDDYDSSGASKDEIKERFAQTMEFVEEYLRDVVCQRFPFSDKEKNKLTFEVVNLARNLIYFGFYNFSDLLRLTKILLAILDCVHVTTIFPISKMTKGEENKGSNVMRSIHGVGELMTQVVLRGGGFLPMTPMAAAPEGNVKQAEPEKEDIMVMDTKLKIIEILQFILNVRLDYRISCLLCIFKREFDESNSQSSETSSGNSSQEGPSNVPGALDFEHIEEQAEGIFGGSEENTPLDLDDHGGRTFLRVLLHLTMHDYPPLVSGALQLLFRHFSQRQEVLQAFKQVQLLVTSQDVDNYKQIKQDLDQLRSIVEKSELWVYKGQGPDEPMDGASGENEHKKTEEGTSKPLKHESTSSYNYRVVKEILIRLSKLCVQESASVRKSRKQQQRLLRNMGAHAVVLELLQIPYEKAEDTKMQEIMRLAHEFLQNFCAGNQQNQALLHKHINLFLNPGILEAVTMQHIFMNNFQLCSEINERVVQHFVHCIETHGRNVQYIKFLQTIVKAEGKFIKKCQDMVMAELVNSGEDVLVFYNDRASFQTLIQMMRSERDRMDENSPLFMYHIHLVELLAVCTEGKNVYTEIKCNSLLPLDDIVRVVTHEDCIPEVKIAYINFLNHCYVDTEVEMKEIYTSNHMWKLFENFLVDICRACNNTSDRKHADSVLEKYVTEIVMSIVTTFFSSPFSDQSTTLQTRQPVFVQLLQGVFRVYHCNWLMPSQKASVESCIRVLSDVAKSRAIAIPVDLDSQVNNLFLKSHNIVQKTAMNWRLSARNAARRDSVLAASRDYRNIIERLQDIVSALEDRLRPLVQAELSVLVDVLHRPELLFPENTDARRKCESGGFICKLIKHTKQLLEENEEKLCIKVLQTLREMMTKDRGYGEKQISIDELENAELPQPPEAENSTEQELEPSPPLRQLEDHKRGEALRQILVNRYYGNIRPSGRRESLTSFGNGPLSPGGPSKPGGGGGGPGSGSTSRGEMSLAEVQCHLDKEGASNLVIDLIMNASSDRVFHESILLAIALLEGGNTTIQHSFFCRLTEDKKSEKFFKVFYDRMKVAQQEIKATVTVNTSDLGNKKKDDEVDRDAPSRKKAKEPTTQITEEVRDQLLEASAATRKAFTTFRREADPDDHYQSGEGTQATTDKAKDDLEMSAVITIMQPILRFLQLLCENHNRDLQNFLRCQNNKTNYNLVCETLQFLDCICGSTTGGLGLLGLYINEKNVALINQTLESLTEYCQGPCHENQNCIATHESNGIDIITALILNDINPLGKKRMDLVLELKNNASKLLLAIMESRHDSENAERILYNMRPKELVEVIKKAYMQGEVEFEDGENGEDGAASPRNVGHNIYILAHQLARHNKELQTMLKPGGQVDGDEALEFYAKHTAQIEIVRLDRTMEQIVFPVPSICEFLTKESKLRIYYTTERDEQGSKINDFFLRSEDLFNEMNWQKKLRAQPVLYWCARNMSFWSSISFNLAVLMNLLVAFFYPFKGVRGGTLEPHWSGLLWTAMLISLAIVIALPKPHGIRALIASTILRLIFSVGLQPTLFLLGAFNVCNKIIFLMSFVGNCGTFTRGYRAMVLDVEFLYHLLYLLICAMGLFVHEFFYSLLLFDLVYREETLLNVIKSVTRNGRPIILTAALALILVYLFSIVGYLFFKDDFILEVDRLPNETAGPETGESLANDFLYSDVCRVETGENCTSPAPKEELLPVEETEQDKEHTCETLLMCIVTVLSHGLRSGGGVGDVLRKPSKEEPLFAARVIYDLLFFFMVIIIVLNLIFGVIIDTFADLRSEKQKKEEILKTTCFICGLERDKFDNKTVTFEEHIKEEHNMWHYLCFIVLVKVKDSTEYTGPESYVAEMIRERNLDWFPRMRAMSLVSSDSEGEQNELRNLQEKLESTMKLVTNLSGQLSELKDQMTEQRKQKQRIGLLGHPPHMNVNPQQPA
# T4 sequence (P29994 1-604): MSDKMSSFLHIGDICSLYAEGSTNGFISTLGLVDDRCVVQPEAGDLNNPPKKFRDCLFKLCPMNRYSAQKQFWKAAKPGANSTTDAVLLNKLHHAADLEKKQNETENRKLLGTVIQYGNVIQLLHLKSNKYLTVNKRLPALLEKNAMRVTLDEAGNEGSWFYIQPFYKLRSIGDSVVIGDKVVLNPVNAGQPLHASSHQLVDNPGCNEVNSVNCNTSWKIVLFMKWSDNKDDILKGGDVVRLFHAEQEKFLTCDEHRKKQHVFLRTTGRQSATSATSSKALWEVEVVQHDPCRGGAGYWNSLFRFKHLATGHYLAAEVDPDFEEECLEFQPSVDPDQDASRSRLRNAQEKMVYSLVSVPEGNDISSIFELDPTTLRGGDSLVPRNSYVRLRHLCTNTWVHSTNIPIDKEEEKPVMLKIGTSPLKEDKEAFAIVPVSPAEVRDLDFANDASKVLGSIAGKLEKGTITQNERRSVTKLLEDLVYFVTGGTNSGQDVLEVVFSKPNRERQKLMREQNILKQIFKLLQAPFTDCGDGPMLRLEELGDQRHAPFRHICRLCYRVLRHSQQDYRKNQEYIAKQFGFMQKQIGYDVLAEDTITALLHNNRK
# T1 sequence (Q9GZU1 whole entry): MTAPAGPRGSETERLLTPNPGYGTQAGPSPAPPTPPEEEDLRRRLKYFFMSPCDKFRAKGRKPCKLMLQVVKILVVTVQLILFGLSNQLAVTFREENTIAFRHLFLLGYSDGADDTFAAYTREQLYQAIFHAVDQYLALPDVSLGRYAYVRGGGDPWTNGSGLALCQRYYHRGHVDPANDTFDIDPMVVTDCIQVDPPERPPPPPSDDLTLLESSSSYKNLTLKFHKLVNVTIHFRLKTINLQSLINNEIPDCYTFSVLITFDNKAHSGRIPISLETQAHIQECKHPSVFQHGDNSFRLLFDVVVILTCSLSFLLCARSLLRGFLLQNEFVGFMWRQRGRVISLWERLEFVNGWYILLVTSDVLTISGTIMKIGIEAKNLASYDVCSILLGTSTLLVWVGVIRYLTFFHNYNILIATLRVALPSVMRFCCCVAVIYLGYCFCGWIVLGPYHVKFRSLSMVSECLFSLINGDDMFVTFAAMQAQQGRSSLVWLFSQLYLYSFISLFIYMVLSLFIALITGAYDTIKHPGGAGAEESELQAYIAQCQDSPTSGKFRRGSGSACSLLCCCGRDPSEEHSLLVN
# T3 sequence (P29994 224-604): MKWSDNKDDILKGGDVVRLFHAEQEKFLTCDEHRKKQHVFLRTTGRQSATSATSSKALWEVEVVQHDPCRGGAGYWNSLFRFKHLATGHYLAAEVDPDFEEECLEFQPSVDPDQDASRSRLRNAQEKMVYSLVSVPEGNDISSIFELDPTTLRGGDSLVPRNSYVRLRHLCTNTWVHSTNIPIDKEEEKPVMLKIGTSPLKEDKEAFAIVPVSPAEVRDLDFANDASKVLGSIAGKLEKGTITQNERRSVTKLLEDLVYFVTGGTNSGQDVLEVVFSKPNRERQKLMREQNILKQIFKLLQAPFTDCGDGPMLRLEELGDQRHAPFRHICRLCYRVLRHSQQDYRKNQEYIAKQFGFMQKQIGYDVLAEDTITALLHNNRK
molecule,measurement,setting,value
ML-SA1,response to ML-SA1,[1],do not respond
same,Ca2+ release from the ER,[2],concentration-dependent Ca^2+ release
"O=C(NCCCN(CCCCN(CCCNC(=O)OCc1ccccc1)C(=O)OCc1ccccc1)C(=O)OCc1ccccc1)NCCO[C@@H]1[C@H](O)[C@@H](OP(=O)(O)O)[C@H](OP(=O)(O)O)[C@@H](O)[C@@H]1OP(=O)(O)O [Compound 2, 2-O-(1,5,10-tris(benzyloxycarbonyl)-15-oxo-1,5,10,14,16-pentaazaoctadecan-18-yl)-1D-myo-inositol 1,4,5-trisphosphate]",ECI50/KD ratio relative to IP3 (fold greater),[3],41 fold
same,Ca2+ release evoked by 2 (%),"[3]; 2 at 1 µM, 30 s, permeabilized DT40-IP3R1 cells",31% ± 7% and 31 ± 7%
same,Ca2+ stores released by a maximal concentration,"[3]; 2 at 30 μM, determined at 150 s, permeabilized DT40-IP3R1 cells",52% ± 3%
same,Kd,"[3]; DT40-IP3R1 cells, read-out: KD derived from functional assays",~450 nM
same,pKD-pECI50,"[3]; KD for IP3R1 in TEM, ECI50 in DT40-IP3R1 cells, mean ± SEM",2.15 ± 0.15
same,Kb,"[3]; functional analysis, IP3-evoked Ca2+ release ± 2 (1 µM), DT40-IP3R1 cells, read-out: KD determined from dose-ratio analysis, KD = [2]/(DR-1)",426 nM
same,"Ca2+ release, Release (maximal)","[3]; permeabilized DT40-IP3R1 cells, determined after 20 s, mean ± SEM",51.9 ± 0.7%
same,EC50,"[3]; permeabilized DT40-IP3R1 cells, determined after 20 s, read-out: Ca2+ release, EC50",479 nM
same,Kd,[4],0.44 nM
same,Kd,[5],2.32 nM
same,Ca2+ release (%),[6]; maximal,51 ± 7%
same,pEC50,[6]; mean ± SEM,6.09 ± 0.22
same,decrease in τo relative to IP3 (fold),[7],~2 fold
same,maximal NPo relative to IP3 (fold less),[7],40 fold
same,"τo, mean channel open time",[7]; 10 µM ligand,4.4 ± 0.20 ms
same,NPo (channel activity),"[7]; 10 µM ligand in pipette, +40 mV, K+ charge carrier, mean ± SEM",0.012 ± 0.003
same,"γK, single-channel K+ conductance","[7]; 10 µM ligand, from current-voltage relationships",217 ± 4 pS
same,Hill coefficient (h) of binding,"[8]; cerebellar membranes, CLM at 20°C",2.0 ± 0.7
same,Kd,"[8]; cerebellar membranes, CLM, conditions that mimic functional assays",549 nM
same,KD relative to KD for IP3 (fold lower),[8]; conditions that mimic functional assays,1.5 fold
